Measurements taken from patent publication US11684614B2, “Formulations of hydroxypyridonate actinide/lanthanide decorporation agents” (priority 2017, dated 2023).
Read-outs that look alike come from different tables or passages of the source.

Key:
[1] = format: in vivo, Swiss-Webster mice; details: for urinary excretion, of administered dose: rodents (mice)
Text: (§1) Formulated material was used in the single dose in vivo ADME characterization studies in Sprague Dawley rats and Swiss-Webster mice with 14C-labeled 3,4,3-L1(1,2-HOPO).
(§2) Pharmacokinetic parameters and disposition/biodistribution of 3,4,3-L1(1,2-HOPO) were characterized in vivo (with the aid of two 14C labels on the spermine backbone of the parent product) in two non-GLP studies using Swiss-Webster mice and Sprague Dawley rats. The study designs for these two studies are shown in TABLE 5.1 and TABLE 5.2, respectively. Groups of six mice (3 male, 3 female) were given a single dose of [14C]-3,4,3-L1(1,2-HOPO) via iv, ip, or po routes, respectively. An additional group of six mice (3 male, 3 female) were administered the 14C-labeled API with permeability enhancer (10% sodium oleate) by oral gavage (po). Similarly, groups of six rats (3 male, 3 female) were administered a single iv dose of the 14C-labeled API or a single po dose of the 14C-labeled API with 10% sodium oleate. In each of these studies, samples were collected at scheduled time points up to 24 hr post-dose and analyzed for 14C content using liquid scintillation counting. Blood, liver, kidney, feces and urine were collected and analyzed from the mice. Blood, brain, liver, kidney, lungs, spleen, skeletal muscle tissues, gastrointestinal (GI) tract samples, carcasses, feces, and urine were collected and analyzed from the rats.

[2] = Radiolabeled in vivo ADME study in rats (with metabolite profiling); parameters: species or system Sprague Dawley rats; details: for urinary excretion, of administered dose: rodents (rats)
Text: as §1, §2
The principal excretion routes of radioactivity from [14C]-3,4,3-L1(1,2-HOPO) were both the feces and urine after an iv dose based on high levels of radioactivity in both feces and urine as well as significant radioactivity in the excretory tissues, kidney, liver and GI tract. Fecal elimination by 24 hr post-dose accounted for approximately 62% and 16% of the iv administered dose in mice and rats, respectively. Urinary excretion accounted for approximately 12-23% of the iv administered dose in these rodents with renal excretion of 14C beginning as early as 5 min after iv injection in mice. In contrast, following oral administration, excretion was primarily by the fecal route accounting for approximately 89% and 41% of the orally administered dose in mice and rats, respectively, by 24 h post-dose. Urinary excretion accounted for <1% of the orally administered dose and low radioactivity levels were detected in systemic circulation and in tissues except for the GI tract. […] Based on the colonic transit time in rats of 15.5 hr, 11 the radioactivity found in the feces in the first 24 hr after po administration is most likely unabsorbed compound. […] Metabolite profiling of [14C]-3,4,3-L1(1,2-HOPO) was performed using an HPLC method on selected urine, feces, kidney, liver, and lung samples from the Sprague Dawley rat. Only samples containing the highest total radioactive levels were selected for analysis. A total of 11 peaks were detected, of which 6 were from uncharacterized interactions between the test article and matrix components because they were also seen in spiked blank matrix controls. These 6 peaks are not metabolites and are considered alternate forms of the parent compound (e.g. complexes of the test article with metallic ions). The 5 other radioactive species (peaks P1-P4 and P10) are considered potential metabolites. Feces-specific metabolite peaks P2, P3, and P10 represented a combined 10.5-11.4% and 0.5-4.2% of the administered dose after po or iv administration, respectively, in rats. Peak P10 was the most abundant peak in all samples analyzed. It represented up to 10% of the administered dose in feces after po administration while the other two feces-specific peaks represented <1% of the administered dose after po administration. Peak P10 was also the predominant, and sometimes the only, peak in feces samples after iv administration. […]

[3] = Related substance assay / chromatographic API purity of prototype formulations; format: physicochemical
Text: Analytical Method I for Related Substance Assay (TABLE 2.5):
This method was previously established and validated (see 3,4,3-L1(1,2-HOPO)—Excipient Compatibility Study; EXAMPLE 1). Suitability was therefore not re-evaluated as part of this study.
Analytical Method I for Related Substance Assay (TABLE 2.6):
The related substances, estimated as area (%) from the chromatograms, and the chromatographic purity of 3,4,3-L1(1,2-HOPO) in selected prototype formulations are listed in TABLE 2.28.

For [14C]-3,4,3-L1(1,2-HOPO), the “time of highest level of radioactivity in kidneys and liver” value (“time of highest level of radioactivity” below) ([1]; ip, mice) was 1 h, the “fecal elimination, of administered dose” value ([1]; iv, by 24 hr post-dose, mice) was “approximately 62%” and the “AUC (plasma radioactivity)” value ([1]; iv, female mice) was 66.2 hr Pg-eq/ml. For the same compound, the “C0 (plasma radioactivity)” value ([1]; iv, female mice) was 342 Pg-eq/mL, the “AUC (plasma radioactivity)” value ([1]; iv, male mice) was 41.7 hr Pg-eq/ml and the “C0 (plasma radioactivity)” value ([1]; iv, male mice) was 76 Pg-eq/mL. The “time of highest level of radioactivity” value ([1]; iv, mice) was 1 h, the “urinary excretion, of administered dose” value ([1]; iv) was 12-23% and the “oral bioavailability improvement with sodium oleate” value ([1]; mice) was 2- to 3 fold. For the same compound, the “fecal excretion, of administered dose” value ([1]; oral, by 24 h post-dose, mice) was “approximately 89%”, the “bioavailability of total radioactivity” value ([1]; oral, mice) was less than 3% and the “urinary excretion, of administered dose” value ([1]; oral) was less than 1%. For the same compound, the “general rank order of tissue concentrations” value ([2]; iv, 2 hr time point, rats) was “kidney>liver>lung>brain spleen muscle”, the “fecal elimination, of administered dose” value ([2]; iv, by 24 hr post-dose, rats) was roughly 16% and the “AUC (plasma radioactivity)” value ([2]; iv, female rats) was 211 hr Pg-eq/ml. For the same compound, the “C0 (plasma radioactivity)” value ([2]; iv, female rats) was 422 Pg-eq/ml, the “AUC (plasma radioactivity)” value ([2]; iv, male rats) was 354 hr Pg-eq/ml and the “C0 (plasma radioactivity)” value ([2]; iv, male rats) was 463 Pg-eq/ml. The “feces-specific metabolite peaks P2, P3, and P10 combined, of the administered dose” value ([2]; iv, rats) was 0.5-4.2%, the “metabolite peak P1 in urine, of the administered dose” value ([2]; iv, rats) was no more than 0.4% and the “time of highest level of radioactivity” value ([2]; iv, rats) was 2 h. The “urinary excretion, of administered dose” value ([2]; iv) was 12-23%, the “fecal excretion, of administered dose” value ([2]; oral, by 24 h post-dose, rats) was roughly 41% and the “bioavailability of total radioactivity” value ([2]; oral, rats) was less than 3%. For the same compound, the “putative major metabolite (P10), of an administered oral dose” value ([2]; oral, rats) was roughly 10%, the “urinary excretion, of administered dose” value ([2]; oral) was less than 1% and the “feces-specific metabolite peaks P2, P3, and P10 combined, of the administered dose” value ([2]; po, rats) was 10.5-11.4%. The “other two feces-specific peaks, of the administered dose” value ([2]; po, rats) was less than 1% and the “peak P10 in feces, of the administered dose” value ([2]; po, rats) was “up to 10%”.

For O=C(NCCCN(CCCCN(CCCNC(=O)c1cccc(=O)n1O)C(=O)c1cccc(=O)n1O)C(=O)c1cccc(=O)n1O)c1cccc(=O)n1O [Drug Substance Control], the “Chromatographic Purity of 3,4,3-LI(1,2-HOPO)” value ([3]; 3,4,3-LI(1,2-HOPO) peak) was 97.45 area (%), the “Related Substances, Unknown peak” value ([3]; RRT 0.59) was 0.01 area (%) and the “Related Substances, Unknown peak” value ([3]; RRT 0.61) was 0.01 area (%). The “Related Substances, Unknown peak” value ([3]; RRT 0.62) was 0.01 area (%), the “Related Substances, Unknown peak” value ([3]; RRT 0.87) was 0.11 area (%) and the “Related Substances, Unknown peak” value ([3]; RRT 0.89) was 0.13 area (%). The “Related Substances, Unknown peak” value ([3]; RRT 1.02) was 0.08 area (%), the “Related Substances, Unknown peak” value ([3]; RRT 1.11) was 0.04 area (%) and the “Related Substances, Unknown peak” value ([3]; RRT 1.27) was 0.17 area (%). The “Related Substances, Unknown peak” value ([3]; RRT 1.30) was 0.10 area (%), the “Related Substances, Unknown peak” value ([3]; RRT 1.39) was 0.20 area (%) and the “Related Substances, Unknown peak” value ([3]; RRT 1.40) was 0.04 area (%). The “Related Substances, Unknown peak” value ([3]; RRT 1.46) was 0.60 area (%), the “Related Substances, Unknown peak” value ([3]; RRT 1.74) was 0.15 area (%) and the “Related Substances, Unknown peak” value ([3]; RRT 1.89) was 0.18 area (%). The “Related Substances, Unknown peak” value ([3]; RRT 2.17) was 0.33 area (%), the “Related Substances, Unknown peak” value ([3]; RRT 2.30) was 0.05 area (%) and the “Related Substances, Unknown peak” value ([3]; RRT 2.58) was 0.25 area (%). The “Related Substances, Unknown peak” value ([3]; RRT 2.79) was 0.11 area (%).
